Patent US12617864B2, “Methods of activating and proliferating exhausted CD8 T cells, CD8 T cells with enhanced activity prepared by the same, and uses thereof” (Medgene Therapeutics, Inc., priority 2021, dated 2026)

Assays:
Klf4 gene = Klf4 gene expression in CD8 T cells treated with APTO-253; assay type: cell-based, mice; conditions: 3 μM APTO-253 for 3 days (72 hours) during activation; compared to PBS-treated CD8 T cells
Procedure: (§1) Accordingly, in the same manner as above, after separating naïve CD8 T cells, naïve CD8 T cells were seeded on a plate coated with anti-CD3 antibody and in the process of activation, anti-CD28 antibody (2 μg/ml) and mIL-2 (100 U/ml) was treated with 3 μM of APTO-253 (MedChemExpress, LLC). Then, it was cultured for 72 hours in a 37° C. 5% CO2 cell incubator. After completion of the culture, the cells were transferred to a 15 ml centrifuge tube, and the volume was adjusted to 3 ml by adding RPMI medium. After that, 3 ml of Histopaque (Sigma) was carefully placed in the lower layer. Then, centrifugation was carried out for 30 minutes at 25° C. at 2,000 rpm, and at this time, acceleration and deceleration were set to a minimum. After centrifugation, the culture solution of the upper layer was removed, and the cells present at the interface were recovered, transferred to a 15 ml centrifuge tube, resuspended in 10 ml of PBS, and centrifuged for 5 minutes at 4° C. and 1,500 rpm. After centrifugation, the supernatant was removed, the cell pellet was washed once more with 10 mL of PBS and centrifuged for 5 minutes at 4° C. and 1,500 rpm. After centrifugation, the supernatant was removed, the cell pellet was resuspended in an appropriate amount of PBS, and the cells were counted. […]

MC38 cancer cells = assay: Mouse tumor model: MC38 in Rag2 KO mice given CD8 T cells treated with APTO-253; conditions: 5×10^5 CD8 T cells treated ex vivo with APTO-253 for 3 days, i.v. the day after 3×10^5 MC38; until day 15; vs PBS-treated CD8 T cells
Procedure: as §1

[1] = test system: CD8 T cells from OT-I transgenic mice; assay: In vitro exhaustion experiment: repeated OVA peptide stimulation of CD8 T cells, gene expression by qRT-PCR; assay type: cell-based; conditions: repeated stimulation+IL-21 treatment group, OVA peptide 10 ng/ml for 5 days
Procedure: To this end, the present inventors specifically isolated CD8 T cells from OT-I transgenic mice having OVA (ovalbumin)-peptide-specific T cell receptor (TCR) and repeatedly treated the OVA peptide for 5 days. All experimental sets were treated with IL-15 (5 ng/ml) and IL-7 (5 ng/ml) to increase the viability of CD8 T cells. After treatment with OVA peptide (10 ng/ml) and washing the next day, stimulation was repeatedly applied for 5 days in such a way that cytokines and OVA peptide were treated with the same composition again (repeated stimulation treatment group). At this time, as a control group, only a cytokine-treated group without OVA peptide treatment and a single stimulation treatment group in which OVA peptide (10 ng/ml) was treated for 2 days and washed, and then only cytokine was treated for 3 days were added. In addition, a set treated with IL-21, which is known to help activate CD8 T cells, was also added (repetitive stimulation+IL-21 treated group) (FIG. 1A). After 5 days, live CD8 T cells were isolated using a cell sorter, RNA was extracted, reverse transcribed into cDNA, and the expression levels of various genes were confirmed by qRT-PCR. […]

Molecule	Klf4 gene expression level in CD8 T cells (Klf4 gene)	tumor growth (tumor volume) (MC38 cancer cells)	expression of the Klf4 gene [1]	expression of the Tox gene ([1]; compared with repeated stimulation group)
Cc1[nH]c2ccc(F)cc2c1-c1nc2c3cccnc3c3ncccc3c2[nH]1 [APTO-253, 2-(5-fluoro-2-methyl-1H-indol-3-yl)-1H-imidazo[4,5-f][1,10]phenanthroline]	increased Klf4 gene expression level	decreased tumor growth		
IL-21: cytokine known to help activate CD8 T cells			significantly increased	decreased
